According to patent US20130143929A1, “FUNGICIDAL IMIDAZOLES” (EI DU PONT DE NEMOURS AND COMPANY, priority 2010, published 2013):
Marks after values point to notes of the source that are not given here.

Key:
Assay type in all cases: in vivo
[1] = tested on: Puccinia recondite f. sp. tritici (the causal agent of wheat leaf rust); test: Test A: wheat leaf rust, preventive spray on wheat seedlings, visual disease rating; conditions: for Test A rating (100 = 100% disease control, 0 = no disease control relative to the controls): wheat leaf rust, preventive spray on wheat seedlings
Procedure, shortened: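 This was a preventive test: Puccinia recondite f. sp. tritici inoculum was applied one day after compound spray to run-off. Test suspensions were made in 50/50 acetone/water with 250 ppm surfactant, at 200 ppm (800 g/ha equivalent) or 40 ppm. Visual ratings of % disease control relative to controls were made after 24 h of saturated humidity and 7 growth-chamber days, all at 20° C.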

[2] = tested on: Septoria tritici (the causal agent of wheat leaf blotch); test: Test B: wheat leaf blotch, preventive spray on wheat seedlings, visual disease rating; conditions: for Test B rating (100 = 100% disease control, 0 = no disease control relative to the controls): wheat leaf blotch, preventive spray on wheat seedlings
Procedure, shortened: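 Preventive test: Septoria tritici spores applied one day after run-off spraying of seedlings (200 ppm equals 800 g/ha; some tests 40 ppm). After 48 h at 24 °C saturated atmosphere and 19 days at 20 °C, disease scored visually as % control relative to untreated plants.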

[3] = tested on: Botrytis cinerea (the causal agent of tomato Botrytis); test: Test C: tomato Botrytis, preventive spray on tomato seedlings, visual disease rating; conditions: for Test C rating (100 = 100% disease control, 0 = no disease control relative to the controls): tomato Botrytis, preventive spray on tomato seedlings
Procedure, shortened: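 Preventive test: B. cinerea spore inoculation one day after tomato seedlings were sprayed to run-off with compound suspended in 50/50 acetone–water plus 250 ppm surfactant. Plants held 48 h at 20° C in saturated air, then 3 days at 24° C; visual ratings scored 100 (full control) to 0 versus controls; some entries used 40 ppm.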

[4] = tested on: Blumeria graminis f. sp. tritici (also known as Erysiphe graminis f. sp. tritici, the causal agent of wheat powdery mildew); test: Test D: wheat powdery mildew, preventive spray on wheat seedlings, visual disease rating; conditions: for Test D rating (100 = 100% disease control, 0 = no disease control relative to the controls): wheat powdery mildew, preventive spray on wheat seedlings
Procedure, shortened: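 Preventive test: seedlings sprayed to run-off and inoculated with powdery mildew spores one day later. Suspensions were made in 50/50 acetone/water with 250 ppm Trem 014 surfactant (200 ppm equals 800 g/ha). Visual ratings after 8 days at 20 °C give percent disease control versus controls.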

[5] = asterisk: 40 ppm test suspension
[6] = no asterisk (standard test suspension concentration, not 40 ppm)
[7] = no asterisk: standard test suspension concentration, 100 = 100% disease control, 0 = no control relative to controls

Row | Structure (SMILES) | Test A rating (100 = 100% disease control, 0 = no disease control relative to the controls) [1, 5] | Test B rating (100 = 100% disease control, 0 = no disease control relative to the controls) [2, 5] | Test C rating (100 = 100% disease control, 0 = no disease control relative to the controls) [3, 5] | Test D rating (100 = 100% disease control, 0 = no disease control relative to the controls) [4, 5] | Test A rating (100 = 100% disease control, 0 = no disease control relative to the controls) [1, 6] [%] | Test B rating (100 = 100% disease control, 0 = no disease control relative to the controls) [2, 6] [%] | Test C rating (100 = 100% disease control, 0 = no disease control relative to the controls) [3, 6] [%] | Test D rating (100 = 100% disease control, 0 = no disease control relative to the controls) [4, 6] [%] | other results
1 | COc1ccc(C(O)c2c(Cl)nc(C)n2-c2c(F)cc(F)cc2Br)c(Cl)c1 (racemic) [compound 231] | 100* % | 100* % | 99* % | 98* % | – | – | – | – | –
2 | Cc1ncc(C(O)c2c(F)cc(F)cc2F)n1-c1ccc(F)cc1Cl (stereo not drawn) [compound 170] | – | – | – | – | 99 | 73 | 63 | 0 | –
3 | OC(c1c(F)cc(F)cc1F)c1c(Cl)nc(Cl)n1-c1ccc(F)cc1Cl (stereo not drawn) [compound 49] | – | – | – | – | 100 | 100 | 100 | 100 | –
4 | Cc1cc(F)ccc1C(O)c1c(Cl)nc(C)n1-c1c(F)cccc1Br (stereo not drawn) [compound 407] | – | – | – | – | – | – | – | – | Test A rating (% disease control, wheat leaf rust) [1, 7]: 99%; Test B rating (% disease control, wheat leaf blotch) [2, 7]: 100%; Test C rating (% disease control, tomato Botrytis) [3, 7]: 52%; Test D rating (% disease control, wheat powdery mildew) [4, 7]: 0%
5 | Cc1nc(Cl)c(C(O)c2ccc(F)cc2Cl)n1-c1ccc(F)cc1Cl (stereo not drawn) [compound 129] | – | – | – | – | 100 | 100 | 98 | 0 | –
6 | Cc1ncc(C(O)c2ccc(F)cc2Br)n1-c1ccc(F)cc1Cl (racemic) [compound 251] | – | – | – | – | 100 | 93 | 98 | 0 | –
7 | OC(c1ccc(Cl)cc1)c1c(Cl)nc(Cl)n1-c1ccc(Cl)cc1Cl (single isomer, unassigned) [compound 86] | – | – | – | – | 96 | 100 | 73 | 56 | –
8 | Cc1nc(Cl)c(C(O)c2c(F)cc(F)cc2F)n1-c1ccc(F)cc1Cl (stereo not drawn) [compound 128] | – | – | – | – | 100 | 100 | 99 | 0 | –
9 | Cc1nc(Br)c(C(O)c2c(F)cc(F)cc2F)n1-c1ccc(Cl)cc1Cl (stereo not drawn) [compound 365] | – | – | – | – | 100 | 100 | 100 | 64 | –
10 | Cc1nc(Br)n(-c2c(F)cc(F)cc2Cl)c1C(O)c1ccc(F)cc1F (racemic) [compound 250] | 100* % | 100* % | 100* % | 100* % | – | – | – | – | –
11 | Cc1ccc(C(O)c2c(Cl)nc(C)n2-c2c(F)cccc2F)c(F)c1 (stereo not drawn) [compound 55] | 100* % | 100* % | 98* % | 98* % | – | – | – | – | –
12 | COc1ccc(C(O)c2c(C)nc(Cl)n2-c2ccc(Cl)cc2Cl)c(Cl)c1 (racemic) [compound 219] | 99* % | 100* % | 98* % | 21* % | – | – | – | – | –
